Reference: PubChem BioAssay (NCI)
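Growth conditions: 96-well plates. Treatment: test compound, 48 hours, 5 concentrations. Analysis: linear interpolation between bracketing concentrations; unreached endpoints set to highest concentration. TGI denotes the concentration required for complete inhibition of growth.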

Assays:
Assay in all cases: NCI tumour cell line growth inhibition, 48 h
CAKI-1 renal = tested on: CAKI-1 renal
DLD-1 colon = tested on: DLD-1 colon
HCT-15 colon = tested on: HCT-15 colon
K-562 leukemia = tested on: K-562 leukemia
LXFL 529 NSCLC = tested on: LXFL 529 NSCLC
M19-MEL melanoma = tested on: M19-MEL melanoma
MALME-3M melanoma = tested on: MALME-3M melanoma
NCI-H460 lung = tested on: NCI-H460 lung
SF-268 CNS = tested on: SF-268 CNS
SK-MEL-2 melanoma = tested on: SK-MEL-2 melanoma
SK-MEL-28 melanoma = tested on: SK-MEL-28 melanoma

Measured: TGI

COc1ccc(C[C@H](N)C(=O)N2C[C@H](CO)C[C@H](n3cnc4c(N(C)C)ncnc43)C2)cc1
> 100 µM: all assays above

COc1ccc(C[C@H](N)C(=O)N2C[C@H](CO)C[C@H](n3ccc(=O)[nH]c3=O)C2)cc1
> 100 µM: all assays above
